In ChEMBL document CHEMBL5724914, “Linking interpersonal differences in gut microbiota composition and drug biotransformation activity” (2024):

Tests used:
[1] = (§1) The drug is tested on Z-012 corresponding to metagenome with ENA study accession number: PRJEB37062 and ENA sample accession number: ERS12561812 for biotransformation under anaerobic condition. The drug concentrations were measured over 9 timepoints collected between 0 and 24 hours of incubation by liquid-chromatography-coupled mass spectrometry (LC–MS); details: 2 µM
[2] = as §1, with “Z-004” for “Z-012”, “ERS12561804” for “ERS12561812”; details: 2 µM
[3] = (§2) The drug is tested on Z-014 corresponding to rat gut metagenome with ENA study accession number: PRJEB37062 and ENA sample accession number: ERS12561814 for biotransformation under anaerobic condition. The drug concentrations were measured over 9 timepoints collected between 0 and 24 hours of incubation by liquid-chromatography-coupled mass spectrometry (LC–MS); details: 2 µM
[4] = as §1, with “Z-021” for “Z-012”, “ERS12561820” for “ERS12561812”; details: 2 µM
[5] = as §1, with “Z-027” for “Z-012”, “ERS12561826” for “ERS12561812”; details: 2 µM
[6] = human gut metagenome, 24 h, 2 µM
[7] = as §2, with “on Z-013” for “on Z-014”, “to rabbit” for “to rat”, “number: ERS12561813” for “number: ERS12561814”; details: 2 µM
[8] = as §2, with “on Z-003” for “on Z-014”, “to pig” for “to rat”, “number: ERS12561803” for “number: ERS12561814”; details: 2 µM
[9] = as §2, with “on Z-001” for “on Z-014”, “to mouse” for “to rat”, “number: ERS12561801” for “number: ERS12561814”; details: 2 µM
[10] = human gut metagenome, 24 h, 2 µM; remark: listed apart in the source
[11] = as §2, with “on Z-011” for “on Z-014”, “to mouse” for “to rat”, “number: ERS12561811” for “number: ERS12561814”; details: 2 µM
[12] = as §1, with “Z-010” for “Z-012”, “ERS12561810” for “ERS12561812”; details: 2 µM
[13] = as §2, with “on Z-018” for “on Z-014”, “to pig” for “to rat”, “number: ERS12561817” for “number: ERS12561814”; details: 2 µM
[14] = as §1, with “Z-005” for “Z-012”, “ERS12561805” for “ERS12561812”; details: 2 µM
[15] = as §2, with “on Z-024” for “on Z-014”, “to pig” for “to rat”, “number: ERS12561823” for “number: ERS12561814”; details: 2 µM
[16] = as §2, with “on Z-009” for “on Z-014”, “to pig” for “to rat”, “number: ERS12561809” for “number: ERS12561814”; details: 2 µM
[17] = as §2, with “on Z-030” for “on Z-014”, “to mouse” for “to rat”, “number: ERS12561829” for “number: ERS12561814”; details: 2 µM
[18] = as §1, with “Z-026” for “Z-012”, “ERS12561825” for “ERS12561812”; details: 2 µM
[19] = human gut metagenome, 24 h, 2 µM; remark: listed apart in the source
[20] = as §2, with “Z-007” for “Z-014”, “ERS12561807” for “ERS12561814”; details: 2 µM
[21] = as §1, with “Z-008” for “Z-012”, “ERS12561808” for “ERS12561812”; details: 2 µM
[22] = as §2, with “on Z-022” for “on Z-014”, “to mouse” for “to rat”, “number: ERS12561821” for “number: ERS12561814”; details: 2 µM
[23] = as §1, with “Z-023” for “Z-012”, “ERS12561822” for “ERS12561812”; details: 2 µM
[24] = as §2, with “on Z-017” for “on Z-014”, “to mouse” for “to rat”, “number: ERS12561816” for “number: ERS12561814”; details: 2 µM
[25] = as §2, with “on Z-006” for “on Z-014”, “to mouse” for “to rat”, “number: ERS12561806” for “number: ERS12561814”; details: 2 µM
[26] = human gut metagenome, 24 h, 2 µM; remark: listed apart in the source
[27] = human gut metagenome, 24 h, 2 µM; remark: listed apart in the source
[28] = as §2, with “on Z-028” for “on Z-014”, “to mouse” for “to rat”, “number: ERS12561827” for “number: ERS12561814”; details: 2 µM
[29] = as §2, with “on Z-002” for “on Z-014”, “to rabbit” for “to rat”, “number: ERS12561802” for “number: ERS12561814”; details: 2 µM
[30] = as §2, with “on Z-016” for “on Z-014”, “to mouse” for “to rat”, “number: ERS12561815” for “number: ERS12561814”; details: 2 µM
[31] = as §2, with “on Z-020” for “on Z-014”, “to rabbit” for “to rat”, “number: ERS12561819” for “number: ERS12561814”; details: 2 µM
[32] = as §2, with “on Z-025” for “on Z-014”, “to rabbit” for “to rat”, “number: ERS12561824” for “number: ERS12561814”; details: 2 µM
[33] = as §2, with “Z-019” for “Z-014”, “ERS12561818” for “ERS12561814”; details: 2 µM
[34] = as §2, with “on WLS-220” for “on Z-014”, “to human” for “to rat”, “number: ERS12561769” for “number: ERS12561814”; details: 2 µM
[35] = as §2, with “Z-029” for “Z-014”, “ERS12561828” for “ERS12561814”; details: 2 µM
[36] = human gut metagenome, 24 h, 2 µM; remark: listed apart in the source
Further: call rule not given here.

## CCN(CC)C(=O)/C(C#N)=C/c1cc(O)c(O)c([N+](=O)[O-])c1 [ENTACAPONE]
[1]
  Bacterial Biotransformation: Compound metabolized
[2]
  Bacterial Biotransformation: Compound metabolized
[3]
  Bacterial Biotransformation: Compound metabolized
[4]
  Bacterial Biotransformation: Compound metabolized
[5]
  Bacterial Biotransformation: Compound metabolized
[6]
  Bacterial Biotransformation: Compound metabolized
[7]
  Bacterial Biotransformation: Compound metabolized
[8]
  Bacterial Biotransformation: Compound metabolized
[9]
  Bacterial Biotransformation: Compound metabolized
[10]
  Bacterial Biotransformation: Compound NOT metabolized
[11]
  Bacterial Biotransformation: Compound metabolized
[12]
  Bacterial Biotransformation: Compound metabolized
[13]
  Bacterial Biotransformation: Compound metabolized
[14]
  Bacterial Biotransformation: Compound metabolized
[15]
  Bacterial Biotransformation: Compound metabolized
[16]
  Bacterial Biotransformation: Compound metabolized
[17]
  Bacterial Biotransformation: Compound metabolized
[18]
  Bacterial Biotransformation: Compound metabolized
[19]
  Bacterial Biotransformation: Compound metabolized
[20]
  Bacterial Biotransformation: Compound metabolized
[21]
  Bacterial Biotransformation: Compound metabolized
[22]
  Bacterial Biotransformation: Compound metabolized
[23]
  Bacterial Biotransformation: Compound metabolized
[24]
  Bacterial Biotransformation: Compound metabolized
[25]
  Bacterial Biotransformation: Compound metabolized
[26]
  Bacterial Biotransformation: Compound metabolized
[27]
  Bacterial Biotransformation: Compound metabolized
[28]
  Bacterial Biotransformation: Compound metabolized
[29]
  Bacterial Biotransformation: Compound metabolized
[30]
  Bacterial Biotransformation: Compound metabolized
[31]
  Bacterial Biotransformation: Compound metabolized
[32]
  Bacterial Biotransformation: Compound metabolized
[33]
  Bacterial Biotransformation: Compound NOT metabolized
[34]
  Bacterial Biotransformation: Compound NOT metabolized
[35]
  Bacterial Biotransformation: Compound metabolized
[36]
  Bacterial Biotransformation: Compound metabolized
